Data on two compounds can be found in patent publication US7318924B2, “Antibodies against cancer” (The Austin Research Institute, priority 2001, dated 2008).

One assay deals with mouse thyoma E3 cells. Nature of the assay: Growth of mouse thymoma E3 cells. It counts as cell-based. The settings on record: read-out: Ic50 concentration. An excerpt:
(§1) Therefore, C4 can overcome drug resistance which is a common problem in acute leukemia.

For the next assay, the system named is CEM/A7R. Nature of the assay: Growth of drug resistant leukaemia cell line CEM/A7R. The assay is classed as cell-based, human.
Excerpt: Thus, this cell line is normally resistant to a variety of naturally derived chemotherapeutic agents.
as §1

A further assay deals with CEM/A7. Nature of the assay: Growth of leukaemia cell line CEM/A7. The assay is classed as cell-based, human.
Excerpt: as §1

For a further assay, the system named is p38. The experiment in a line: p38 activation in LS174T cells. It counts as cell-based, human. The settings on record: 3 hours; C3 5, 10 μg/ml; Cisplatin 25, 50 μg/ml. As for the experimental part: (§2) P38 was not affected by C3 but was activated by Cisplatin.
The stress related p38 pathway was also investigated in LS174T cells following anti-Cripto-1 Mab treatment. p38 activation occurred following 48 hours of Mab exposure, when the level of activated JNK declined. p38 was further activated at 72 hours when elevated JNK returned to basal level (FIG. 8D). […] The potentiation of Cisplatin cytotoxicity by anti-Cripto-1 Mabs (FIG. 1) is accompanied by an increase in JNK phosphorylation (FIG. 8A) and p38 MAPK (FIG. 8B).

The test system of a further assay is JNK/SAPK. Nature of the assay: JNK activation in LS174T cells. It counts as cell-based, human. The settings on record: 3 hours; C3 5, 10 μg/ml; Cisplatin 25, 50 μg/ml. As for the experimental part: as §2
The role of JNK and p38 activation in anti-Cripto-1 mediated apoptosis was investigated in colon cancer LS17T cell line using different concentration of Mabs and various times of incubation. In particular, JNK/SPAK was activated in LS174T cells following 3 hours incubation with anti-Cripto-1 Mab in a dose dependent manner (FIG. 8A). JNK activation was at the highest level after 24 hours of exposure (FIGS. 8B and 8D), and declined within 48 h, returning to basal level at 72 hours of incubation (FIG. 8D) indicating JNK activation by anti-Cripto1 antibodies is time dependent

Converted amounts (≈) assume the structure as drawn.

Regarding `COc1cccc2c1C(=O)c1c(O)c3c(c(O)c1C2=O)C[C@@](O)(C(=O)CO)C[C@@H]3O[C@H]1C[C@H](N)[C@@H](O)[C@H](C)O1` [Epirubicin], in the assay with mouse thyoma E3 cells, the IC50 came to 0.02 µg/mL (≈ 0.0368 µM). Further, the figures for the “resistance to Epirubicin compared to E3” value in the assay with CEM/A7R and in the assay on CEM/A7 were approximately 40 fold and “around 80 fold”, respectively.
Consider `N.N.[Cl][Pt][Cl]` [Cisplatin], for which the p38 activation entry in the assay with p38 is on record as “activated”. For the same compound, the JNK activation result in the assay on JNK/SAPK is given as “induced”.
